The record followed here is patent US20240336617A1, “Substituted Bimane Compounds and Methods of Use Thereof” (THE TRUSTEES OF THE UNIVERSITY OF PENNSYLVANIA, priority 2023, published 2024).

Series [1] deals with bovine serum albumin (BSA) (Bos taurus, UniProt P02769). The experiment in a line: Fluorescence in the presence of BSA. It counts as binding.
Another series deals with T1, αS fibrils (Homo sapiens, UniProt P37840).
T1 construct: intein-His6 (C, cleaved yes); made in house; host or cells: Escherichia coli BL21
The experiment in a line: Competition binding with ThT on αS fibrils.

Series [2] is described as follows: pH measurements (absorption and emission). It is filed as physicochemical. The settings on record: pH 2-11. On the procedure:
10 mM stock solutions of 7h, 7j, and 7k in DMSO were individually diluted into ACN/PBS buffer (50:50 v/v) having different pH ranging from pH 2-11 with 25 μM (500 μL) of final concentration. For pH screening of 7h and 7j, PBS buffer solutions were prepared, then adjusted the pH 2, 4, and 7 by adding 6 M hydrochloric acid, pH 9 and 11 by adding 5 M sodium hydroxide. For pH screening of 7k, pH 4.4 and 7.4 were prepared by citric acid/phosphate buffer. Then, the absorption and fluorescence spectra were recorded by using Thermo Scientific Genesys 150 UV-Vis spectrometer, followed by PTI QuantaMaster™ 40 fluorescence spectrometer by excitation with maximum absorption wavelength.
pH measurements. 10 mM stock solutions of 5h and 5j in DMSO were individually diluted into ACN/PBS buffer (50:50 v/v) having different pH ranging from pH 2-11 with 25 µM (500 μL) of final concentration. For pH screening of 5h and 5j, PBS buffer solutions were prepared, then adjusted the pH 2, 4, and 7 by adding 6 M hydrochloric acid, pH 9 and 11 by adding 5 M sodium hydroxide. Then, we have recorded the absorption and fluorescence spectra by using Thermo Scientific Genesys 150 UV-Vis spectrometer, followed by PTI QuantaMaster™ 40 fluorescence spectrometer by excitation with maximum absorption wavelength.

Each structure is given as a SMILES string.

Sequence of bovine serum albumin (BSA) (P02769 25-607): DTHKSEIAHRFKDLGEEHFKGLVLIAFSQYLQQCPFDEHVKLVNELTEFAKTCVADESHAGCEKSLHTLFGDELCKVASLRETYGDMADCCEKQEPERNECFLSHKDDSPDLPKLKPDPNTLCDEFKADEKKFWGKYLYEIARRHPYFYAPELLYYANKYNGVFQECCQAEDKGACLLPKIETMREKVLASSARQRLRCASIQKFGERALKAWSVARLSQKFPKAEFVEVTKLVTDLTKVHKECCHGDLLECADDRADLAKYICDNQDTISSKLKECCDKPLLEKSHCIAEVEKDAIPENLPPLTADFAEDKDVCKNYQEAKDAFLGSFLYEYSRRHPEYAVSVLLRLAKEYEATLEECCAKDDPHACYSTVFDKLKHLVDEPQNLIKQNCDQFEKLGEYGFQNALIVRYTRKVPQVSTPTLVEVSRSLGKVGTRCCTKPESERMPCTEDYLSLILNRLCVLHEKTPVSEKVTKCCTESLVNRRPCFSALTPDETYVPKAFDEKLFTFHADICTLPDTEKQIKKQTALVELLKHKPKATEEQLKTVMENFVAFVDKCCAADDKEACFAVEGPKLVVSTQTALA

`Cc1c(C)n2c(/C=C/c3ccc(N(C)C)cc3)c(C)c(=O)n2c1=O` [Compound 7l, (E)-3-(4-(dimethylamino)styryl)-2,5,6-trimethyl-1H,7H-pyrazolo[1,2-a]pyrazole-1,7-dione]: the “fluorescence turn on with BSA” value in series [1] is “turn-on was possible”. Moreover, the “λmax (λem) with BSA” value in series [1] (10 μM probe, BSA 50 μM, excitation 418 nm) worked out at 555 nm.

Consider `Cc1c(C)n2c(/C=C/c3ccc(N4CCOCC4)cc3)c(C)c(=O)n2c1=O` [Compound 7k, (E)-2,3,6-trimethyl-5-(4-morpholinostyryl)-1H,7H-pyrazolo[1,2-a]pyrazole-1,7-dione], for which the “competition with ThT on αS PFFs” value on αS fibrils is listed as “higher affinity compared than ThT”.

As for `Cc1c(C)n2c(/C=C/c3ccc(N)cc3)c(C)c(=O)n2c1=O` [Compound 7j, (E)-3-(4-aminostyryl)-2,5,6-trimethyl-1H,7H-pyrazolo[1,2-a]pyrazole-1,7-dione], the “pH effects on absorption and emission” value in series [2] is “blue-shifted absorption and emission at pH 2”.
